In ChEMBL document CHEMBL3243921, “2-Pyrrolidinylideneureas, a new class of central nervous system agents” (J Med Chem, 1978) one finds Activity data, which are given here for 42 compounds.

Experiment [1] has as its system Mus musculus. The experiment is described as follows: Anticonvulsant activity in po dosed mouse assessed as blockade of supramaximal electroshock-induced […] seizure. In kind it is functional.
Experiment [2] concerns Mus musculus. The experiment in a line: Muscle relaxant activity in po dosed mouse assessed as blockade of pentylenetetrazol-induced tonic extensor seizure. In kind it is functional.
The subject of experiment [3] is Mus musculus. The experiment is described as follows: Muscle relaxant activity in po dosed mouse assessed as increase in strychnine-induced persistant convulsive threshold. It is filed as functional.
In experiment [4] the test system is Rattus norvegicus. The experiment in a line: Antianxiety activity in ip dosed rat assessed as effect on increase in punished responses administered qd for 5 days measured every day for 5 days. It is filed as functional.
Experiment [5] relates to Mus musculus. The experiment is described as follows: Hypnotic activity in po dosed mouse assessed as increase in pentylenetetrazol-induced persistent-convulsive threshold. In kind it is functional, organism-based.
The subject of experiment [6] is Mus musculus. The experiment is described as follows: Sedative-hypnotic activity in po dosed mouse assessed as increase in pentylenetetrazol-induced persistent-convulsive threshold. It is filed as functional, organism-based.

The source made the active and inactive calls.

`CN1CCC/C1=N\C(=O)Nc1ccc(C(C)(C)C)cc1`: the result in experiment [1], in experiment [2], in experiment [3] and in experiment [4] was inactive.

As for `O=C(/N=C1\CCCN1)NC12CC3CC(CC(C3)C1)C2`, the result in experiment [4] was inactive.

Regarding `CN1CCC/C1=N\C(=O)Nc1cc(C(F)(F)F)cc(C(F)(F)F)c1`, in experiment [1], the result was Active.

As for `Cc1cccc(C)c1NC(=O)/N=C1\CC(C)(C)CN1C`, the outcome in experiment [5], in experiment [6], in experiment [1], in experiment [2], in experiment [3] and in experiment [4] was inactive.

`COc1ccc(NC(=O)/N=C2\CCCN2C)cc1`: the result in experiment [1], in experiment [2], in experiment [3] and in experiment [4] was inactive.

For the compound `CN1CCCCC/C1=N\C(=O)Nc1ccccc1`, the outcome in experiment [5], in experiment [6], in experiment [1], in experiment [2], in experiment [3] and in experiment [4] was inactive.

As to `O=C(/N=C1\CCCCCN1)Nc1ccccc1`, the result in experiment [5], in experiment [6], in experiment [1], in experiment [2], in experiment [3] and in experiment [4] was inactive.

Take `O=C(/N=C1\CCCN1)NC1CCCCC1`: in experiment [4], the result was inactive.

Consider `CCOc1ccccc1NC(=O)/N=C1\CCCN1C`, for which the result in experiment [5], in experiment [6], in experiment [1], in experiment [2], in experiment [3] and in experiment [4] was Active.

Regarding `CN1CCC/C1=N\C(=S)Nc1ccc([N+](=O)[O-])cc1`, the result in experiment [5], in experiment [6], in experiment [1], in experiment [2], in experiment [3] and in experiment [4] was inactive.

Regarding `CN1CCC/C1=N\C(=O)Nc1cccc([N+](=O)[O-])c1`, the outcome in experiment [4] was inactive.

Consider `CN1CCC/C1=N\C(=O)Nc1ccc(OCc2ccccc2)cc1`, for which the result in experiment [1], in experiment [2], in experiment [3] and in experiment [4] was inactive.

`CCCCN1CCC/C1=N\C(=O)Nc1c(C)cccc1C`: the outcome in experiment [5], in experiment [6], in experiment [1], in experiment [2], in experiment [3] and in experiment [4] was inactive.

Consider `CCOC(=O)c1ccc(NC(=O)/N=C2\CCCN2C)cc1`, for which the result in experiment [1], in experiment [2], in experiment [3] and in experiment [4] was inactive.

With `Cc1ccc(NC(=O)/N=C2\CCCN2C)cc1`, the outcome in experiment [1], in experiment [2], in experiment [3] and in experiment [4] was inactive.

With `CCOc1ccc(NC(=O)/N=C2\CCCN2C)cc1`, the result in experiment [1], in experiment [2], in experiment [3] and in experiment [4] was inactive.

As to `CC1/C(=N\C(=O)Nc2cccc(Cl)c2)N(C)CC1c1ccccc1` (configuration not stated), the outcome in experiment [5], in experiment [6], in experiment [1], in experiment [2], in experiment [3] and in experiment [4] was inactive.

Take `Cc1cccc(C)c1NC(=O)/N=C1\C(C)C(c2ccccc2)CN1C` (configuration not stated): the result in experiment [5], in experiment [6], in experiment [1], in experiment [2], in experiment [3] and in experiment [4] was inactive.

In the case of `CN1CCC/C1=N\C(=O)Nc1ccc(S(C)(=O)=O)cc1`, the outcome in experiment [1], in experiment [2], in experiment [3] and in experiment [4] was inactive.

As to `Cc1cccc(C)c1NC(=O)/N=C1\CCC(C)N1C` (configuration not stated), the result in experiment [5], in experiment [6], in experiment [1], in experiment [2], in experiment [3] and in experiment [4] was inactive.

`CN1CC(C)(C)C/C1=N\C(=O)Nc1c(Cl)cccc1Cl`: the result in experiment [5], in experiment [6], in experiment [1], in experiment [2], in experiment [3] and in experiment [4] was inactive.

As for `CN1CCCCC/C1=N\C(=O)Nc1c(Cl)cccc1Cl`, the result in experiment [5], in experiment [6], in experiment [1], in experiment [2], in experiment [3] and in experiment [4] was inactive.

Consider `CN1CCC/C1=N\C(=O)Nc1ccc(N(C)C)cc1`, for which the result in experiment [1], in experiment [2], in experiment [3] and in experiment [4] was inactive.

As for `CSc1ccc(NC(=O)/N=C2\CCCN2C)cc1`, the outcome in experiment [1], in experiment [2], in experiment [3] and in experiment [4] was inactive.

On to `CCCCCCCCCCCCCCCCCCNC(=O)/N=C1\CCCN1`, for which, in experiment [4], the outcome was inactive.

As for `Cc1cc(N(C)C)cc(C)c1NC(=O)/N=C1\CCCN1C`, the outcome in experiment [2] and in experiment [3] was Active.

Turning to `CC1/C(=N\C(=O)Nc2c(Cl)cccc2Cl)N(C)CC1c1ccccc1` (configuration not stated), the outcome in experiment [5], in experiment [6], in experiment [1], in experiment [2], in experiment [3] and in experiment [4] was inactive.

Take `CN1CCC/C1=N\C(=O)Nc1ccc(C(F)(F)F)cc1`: the outcome in experiment [4] was inactive.

With `Cc1cccc(C)c1NC(=O)/N=C1\CCCCCN1C`, the outcome in experiment [5], in experiment [6], in experiment [1], in experiment [2], in experiment [3] and in experiment [4] was inactive.

As for `CN1CCC/C1=N\C(=O)Nc1ccc(O)cc1`, the outcome in experiment [1], in experiment [2], in experiment [3] and in experiment [4] was inactive.

`CN1CCC/C1=N\C(=O)Nc1ccc(F)cc1`: the outcome in experiment [1], in experiment [2], in experiment [3] and in experiment [4] was inactive.

As to `CN1CCC/C1=N\C(=O)Nc1c(Cl)cc(Cl)cc1Cl`, the outcome in experiment [2] and in experiment [3] was Active.

As to `CN1CC(C)(C)C/C1=N\C(=O)Nc1ccccc1`, the result in experiment [5], in experiment [6], in experiment [1], in experiment [2], in experiment [3] and in experiment [4] was inactive.

On to `CN1CC(c2ccccc2)C/C1=N\C(=O)Nc1c(Cl)cccc1Cl` (configuration not stated), for which the result in experiment [5], in experiment [6], in experiment [1], in experiment [2], in experiment [3] and in experiment [4] was inactive.

In the case of `CN1CCC/C1=N\C(=O)Nc1ccc(Br)cc1`, the result in experiment [1], in experiment [2], in experiment [3] and in experiment [4] was inactive.

Consider `Cc1ccc(Cl)c(C)c1NC(=O)/N=C1\CCCN1C`, for which the outcome in experiment [2] and in experiment [3] was Active.

As for `CN1CCC/C1=N\C(=O)Nc1ccccc1C(F)(F)F`, the outcome in experiment [5], in experiment [6], in experiment [1], in experiment [2], in experiment [3] and in experiment [4] was Active.

With `CN1CCC/C1=N\C(=O)Nc1c(Br)cc(Br)cc1Br`, the result in experiment [2] and in experiment [3] was Active.

Turning to `O=C1NC(=O)C(c2ccccc2)(c2ccccc2)N1`, the result in experiment [1] was Active.

As for `O=C(/N=C1\CCCN1)Nc1ccccc1`, the result in experiment [2] and in experiment [3] was Active.

For the compound `Cc1cc(C)c(NC(=O)/N=C2\CCCN2C)c(C)c1`, the result in experiment [2] and in experiment [3] was Active.

In the case of `CN1CCC/C1=N\C(=O)Nc1ccc(Cl)cc1`, the outcome in experiment [1], in experiment [2], in experiment [3] and in experiment [4] was inactive.
